Test results from patent US8088892B2, “Inhibitors of proteins from the Rho-GEF family” (Centre National de la Recherche Scientifique (C.N.R.S.), priority 2002, dated 2012).
Entries after “also recorded” stand apart in the source; their conditions may differ.

B1: TRIAPα: aptamer of 154 amino acids: variable region of 42 amino acids inserted into the thioredoxin protein; tested as GST fusion (protein)
chain: MSDKIIHLTDDSFDTDVLKADGAILVDFWAEWCGPAREGADGAICGYNLATLVMLGPSERVFCPLCEPCSSDIYELMGPCKMIAPILDEIADEYQGKLTVAKLNIDQNPGTAPKYGIRGIPTLLLFKNGEVASATKVGALSKGQLKEFLDANLA

Assays:
[1] = system: ectopically expressed TrioGEFD2 in PC12 cells; assay: NGF-induced neurite outgrowth in PC12 cells expressing TrioGEFD2; type: cell-based; details: PC12 co-transfected with TrioGEFD2, NGF 50 ng/ml 16 hours
Experimental: FIG. 5C represents the inhibition by TRIPα of the TrioGEFD2 effect in neuronal morphology. Immunofluorescence images of PC12 cells co-transfected with HA-TrioGEFD2 and either GFP-TRIPα (panels d, e, f) or GFP alone panels a, b, c) are shown. After 48 hours of expression, cells were treated for 16 hours with NGF (nerve growth factor) (50 ng/ml) and fixed. Expression of GFP and GFP-TRIPα was directly visualised (a, d) whereas overexpressed TrioGEFD2 was detected using the 12CA5 anti-HA antibody followed by AMCA-conjugated anti-mouse IgG (b, e). Filamentous actin was stained with Rhodamine-conjugated Phalloidin (c, f). Scale bar: 20 μm.
Cells were transfected with HA-tagged TrioGEFD2 (left side of the figure), myc-tagged KalGEFD2 (middle of the figure) or RhoAV14 (a constitutively active mutant of RhoA) (right side of the figure), and with either GFP-TRIPα (white bars), GFP-TRIPβ (hatched bars) or GFP alone (black bars). Cells were processed as described in FIG. 5C and the number of co-transfected cells with neurites was counted.
Numerous reports have established Rho-GTPases as key regulators of neuronal morphology (Luo, 2000). In neuronal cell lines, activation of RhoG, Rac and Cdc42 induces neurite outgrowth, while RhoA stimulation antagonises this effect by promoting neurite retraction (Katoh et al., 2000; Kozma et al., 1997; Yamaguchi et al., 2001). The PC12 cell line is a useful cellular model for studying Nerve Growth Factor (NGF)-induced neuronal differentiation. PC12-E2 cells were plated on collagen-coated 12 mm coverslips as described previously (Estrach et al., 2002) and transfected with the Lipofectamine Plus reagent (Life Technologies) according to the manufacturer's instructions. After transfection and differentiation with NGF (Promega, 50 ng/ml in DMEM medium supplemented with 0.5% horse serum (HS)) for 16 hours, PC12 cells were fixed and permeabilised as described (Estrach et al., 2002). […] Images were recorded using a Hamamatsu CCD camera. All transfections were repeated at least three times, and an average of 200 cells was counted each time. […]

[2] = system: NGF-differentiated PC12 cells; assay: Serum-induced neurite retraction; type: cell-based; details: 0 to 15 min after serum addition
Experimental: FIG. 6A represents histograms quantifying the effects of GFP-TRIPα or GFP on serum induced neurite retraction in NGF-differentiated PC12 cells. The X-axis represents the time after serum addition in minutes and the Y-axis represents the percentage of transfected cells with neurites.
Cells were transfected with GFP-TRIPα (white bars) or GFP (black bars) and differentiated with NGF (50 ng/ml). Serum was added and neurite retraction was followed for 15 minutes. The number of transfected cells with neurites was counted from at least 200 cells in 3 independent experiments.
Since Trio is an activator of RhoA and is expressed in PC12 cells (Estrach et al., 2002), it was analysed whether TRIPα could interfere with serum-induced neurite retraction in NGF-differentiated PC12 cells. […] After NGF treatment, cells were subjected to serum addition (DMEM medium supplemented with 10% HS and 5% fetal calf serum (FCS)) from 0 to 15 min (FIG. 6A). Cells were then fixed and permeabilised (Estrach et al., 2002) and observed as described in FIG. 5. Cells with neurites are defined as cells with neurites of at least twice the length of the cell body.

Full length Trio (RhoA) = target: T1, Full length Trio (RhoA) (Homo sapiens, UniProt O75962); assay: Yeast Exchange Assay (YEA), full length Trio on RhoA; type: cell-based; set-up: key: “+ +” represents a slight activation of the reporter gene; “+ + + +” represents a strong activation of the reporter gene; “−” represents no activation of the reporter gene; details: +TRIPα (−TRIPα: −)
T1 construct: Full length Trio was introduced into the YEA; expressed in transfected cells; host or cells: yeast strain TAT7
Text: The wild type GTPase is fused to the LexA DNA binding domain (Matchmaker GAL4 two-hybrid, Clontech Laboratories, Inc., USA) and the effector to the […] (Matchmaker GAL4 two-hybrid, Clontech, Inc., USA). Under these conditions, no binding occurs in the TAT7 strain (De Toledo et al., 2000). Upon addition of a third plasmid expressing the GEF, the GTPase gets activated and binds to its effector, thus leading to the transactivation of the reporter gene LacZ.
Full length Trio was introduced into the YEA and tested for its ability to activate RhoA and RhoG respectively, in the presence or absence of TRIPα. The table below summarizes the effect of TRIPα on Trio as schematized in this Figure.
In order to better characterise the effect of TRIAPα on the Trio full length RhoGEF activity, the yeast exchange assay (YEA) was used, which is a quick and quantitative test derived from the classical two-hybrid system allowing to measure Rho-GEF activity and specificity (De Toledo et al., 2000). This functional assay is based on the fact that the GTPase binds to its effector only if it is activated by a RhoGEF. Briefly, yeasts are transformed with the GTPase fused to the LexA binding domain (LexA), and its effector to the GAL-4 Activating Domain (GAD), and with the adequate Rho-GEF partner in the yeast strain TAT7 (FIG. 7). […]

TrioDH2PH2L2051E = target: T2, TrioDH2PH2L2051E (Homo sapiens, UniProt O75962, L2110E); assay: Binding specificity of aptamers in yeast; set-up: key: +++^1 and +^1 represent respectively a full and a partial (see FIG. 1) binding capacity; +++^1 and +^1 represent respectively a full and a partial (see FIG. 1) binding capacity; −−^1 represents a lack of binding; details: RhoGEF TrioDH2PH2L2051E
T2 construct: TrioGEFD2 (DH2PH2, amino acids 1848-2298); expressed in transfected cells; host or cells: yeast

Row | Molecule | Reversion of TrioGEFD2 inhibition of NGF-induced neurite outgrowth [1] | Effect on serum-induced neurite retraction [2] | activation of the reporter gene by full length Trio, RhoA (Full length Trio (RhoA)) | Binding in yeast (TrioDH2PH2L2051E)
1 | AREGADGAICGYNLATLVMLGPSERVFCPLCEPCSSDIYELM [TRIPα, 42-amino acid peptide corresponding to the variable region of TRIAPα] | only the TrioGEFD2 effect is reversed | prevents serum- and LPA-induced neurite retraction; also recorded: significantly inhibited this retraction | − | 
2 | B1 |  |  |  | +++^1
